Structures can show the parent of a compound that is named as a salt.
Target: T1, recombinant full-length WRN protein (1-1432) (Homo sapiens, UniProt Q14191)
T1 construct: recombinant full-length WRN protein (1-1432)
Assay: WRN unwinding activity, fluorogenic 384-well assay (Example A)
Type: biochemical
Conditions: WRN unwinding activity, 4 hr; Table 2; read-out: 4 hr UNW pIC50 (converted)
In short: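 Read-out is end-point unwinding of a fluorophore/quencher duplex (ex 525, em 598 nm) after 60 min with 200 μM ATP and 12 nM DNA (2× stocks), EDTA stop. Compound first sat 4 h with 200 pM WRN (2× stock) in pH 8.0 Tris buffer; four-parameter fit gives pIC50.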

T1 sequence (Q14191 whole entry): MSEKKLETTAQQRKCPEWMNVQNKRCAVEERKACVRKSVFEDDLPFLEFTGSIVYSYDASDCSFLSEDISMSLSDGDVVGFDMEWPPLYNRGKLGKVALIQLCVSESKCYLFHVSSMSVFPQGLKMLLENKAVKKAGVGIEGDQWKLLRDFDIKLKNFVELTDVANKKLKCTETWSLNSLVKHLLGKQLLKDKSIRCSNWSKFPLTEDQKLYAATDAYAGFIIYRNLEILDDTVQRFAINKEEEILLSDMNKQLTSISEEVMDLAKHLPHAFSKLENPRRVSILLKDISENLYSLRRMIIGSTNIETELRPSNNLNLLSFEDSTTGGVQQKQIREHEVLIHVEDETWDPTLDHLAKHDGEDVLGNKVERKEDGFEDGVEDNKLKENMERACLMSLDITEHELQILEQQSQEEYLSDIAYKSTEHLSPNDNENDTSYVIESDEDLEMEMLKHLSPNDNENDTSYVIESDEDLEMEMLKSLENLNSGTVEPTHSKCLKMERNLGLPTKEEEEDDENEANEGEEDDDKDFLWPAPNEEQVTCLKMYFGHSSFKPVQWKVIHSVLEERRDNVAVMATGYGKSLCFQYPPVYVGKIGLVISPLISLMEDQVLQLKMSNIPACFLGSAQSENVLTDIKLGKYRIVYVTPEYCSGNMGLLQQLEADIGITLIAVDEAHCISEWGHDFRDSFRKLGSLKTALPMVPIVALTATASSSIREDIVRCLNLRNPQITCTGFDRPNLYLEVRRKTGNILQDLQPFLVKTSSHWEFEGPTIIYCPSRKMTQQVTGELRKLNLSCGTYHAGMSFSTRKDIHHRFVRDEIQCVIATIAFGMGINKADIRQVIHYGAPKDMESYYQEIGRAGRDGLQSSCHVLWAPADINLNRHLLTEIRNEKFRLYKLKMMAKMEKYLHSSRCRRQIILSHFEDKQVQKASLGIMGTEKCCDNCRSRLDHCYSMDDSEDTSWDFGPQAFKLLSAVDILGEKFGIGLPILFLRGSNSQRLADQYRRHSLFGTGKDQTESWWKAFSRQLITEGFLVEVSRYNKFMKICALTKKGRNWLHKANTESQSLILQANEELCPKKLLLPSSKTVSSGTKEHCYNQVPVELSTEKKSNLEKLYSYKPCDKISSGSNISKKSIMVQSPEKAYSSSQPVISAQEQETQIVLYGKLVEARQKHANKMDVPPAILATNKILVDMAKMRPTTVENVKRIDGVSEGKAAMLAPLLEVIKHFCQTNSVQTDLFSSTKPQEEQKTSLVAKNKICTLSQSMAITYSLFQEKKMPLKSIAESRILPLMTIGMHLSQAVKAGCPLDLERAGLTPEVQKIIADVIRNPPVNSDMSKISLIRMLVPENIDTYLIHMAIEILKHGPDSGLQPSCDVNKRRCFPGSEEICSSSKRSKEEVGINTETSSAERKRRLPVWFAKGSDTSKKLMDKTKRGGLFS

## O=C(O)[C@@H]1[C@@H](c2ccc(C3=CCOC3)cc2)CCC[C@H]1C(=O)Nc1ccc(C(F)(F)F)cc1F [Example 57, (1R,2S,6R)-2-(4-(2,5-dihydrofuran-3-yl)phenyl)-6-((2-fluoro-4-(trifluoromethyl)phenyl)carbamoyl) cyclohexane-1-carboxylic acid]
  IC50: 100 nM

## O=C(O)[C@@H]1[C@@H](c2ccc(CCN3CCNC3=O)cc2)CCC[C@H]1C(=O)Nc1ccc(C(F)(F)F)cc1F [Example 60, (1R,2R,6S)-2-((2-fluoro-4-(trifluoromethyl)phenyl)carbamoyl)-6-(4-(2-(2-oxoimidazolidin-1-yl)ethyl)phenyl)cyclohexane-1-carboxylic acid]
  IC50: 2510 nM

## O=C(O)[C@@H]1[C@@H](c2ccc(C3CCCCC3)cc2)CCC[C@H]1C(=O)Nc1ccc(C(F)(F)F)cc1F [Example 62, (1R,2S,6R)-2-(4-cyclohexylphenyl)-6-((2-fluoro-4-(trifluoromethyl)phenyl)carbamoyl)cyclohexane-1-carboxylic acid]
  IC50: 126 nM

## O=C(O)[C@@H]1[C@@H](c2ccc(C3COC3)cc2)CCC[C@H]1C(=O)Nc1ccc(C(F)(F)F)cc1F [Example 63, (1R,2R,6S)-2-((2-fluoro-4-(trifluoromethyl)phenyl)carbamoyl)-6-(4-(oxetan-3-yl)phenyl)cyclohexane-1-carboxylic acid]
  IC50: 1580 nM

## O=C(O)[C@@H]1[C@@H](c2ccc(CC3(CO)COC3)cc2)CCC[C@H]1C(=O)Nc1ccc(C(F)(F)F)cc1F [Example 68, (1R,2R,6S)-2-((2-fluoro-4-(trifluoromethyl)phenyl)carbamoyl)-6-(4-((3-(hydroxymethyl)oxetan-3-yl)methyl)phenyl)cyclohexane-1-carboxylic acid]
  IC50: 1580 nM

## O=C(O)[C@@H]1[C@@H](c2ccc(C3CC3)cc2)CCC[C@H]1C(=O)Nc1ccc(C(F)(F)F)cc1F [Example 69, (1R,2S,6R)-2-(4-cyclopropylphenyl)-6-((2-fluoro-4-(trifluoromethyl)phenyl)carbamoyl)cyclohexane-1-carboxylic acid]
  IC50: 6310 nM

## O=C(O)[C@@H]1[C@@H](c2ccc(CC3CCNCC3)cc2)CCC[C@H]1C(=O)Nc1ccc(C(F)(F)F)cc1F [Example 71, (1R,2R,6S)-2-((2-fluoro-4-(trifluoromethyl)phenyl)carbamoyl)-6-(4-(piperidin-4-ylmethyl)phenyl)cyclohexane-1-carboxylic acid]
  IC50: 100000 nM

## CN(c1ccc([C@H]2CCC[C@@H](C(=O)Nc3ccc(C(F)(F)F)cc3F)[C@@H]2C(=O)O)cc1)S(=O)(=O)c1nnc[nH]1 [Example 96, (1R,2R,6S)-2-((2-fluoro-4-(trifluoromethyl)phenyl)carbamoyl)-6-(4-(N-methyl-4H-1,2,4-triazole-3-sulfonamido)phenyl)cyclohexane-1-carboxylic acid]
  IC50: 0.501 nM

## CN(c1ccc([C@H]2CCC[C@@H](C(=O)Nc3ccc(C(F)(F)F)cc3F)[C@@H]2C(=O)O)cc1)S(=O)(=O)c1cccc(-c2nnco2)c1 [Example 105, (1R,2R,6S)-2-((2-fluoro-4-(trifluoromethyl)phenyl)carbamoyl)-6-(4-((N-methyl-3-(1,3,4-oxadiazol-2-yl)phenyl)sulfonamido)phenyl)cyclohexane-1-carboxylic acid]
  IC50: 1.58 nM

## Cc1nc2cc(S(=O)(=O)N(C)c3ccc([C@H]4CCC[C@@H](C(=O)N[C@H]5CC[C@H](C(C)(C)O)CC5)[C@@H]4C(=O)O)cc3)ccc2n1C [Example 183, (1R,2R,6S)-2-(((1r,4R)-4-(2-hydroxypropan-2-yl)cyclohexyl)carbamoyl)-6-(4-((N,1,2-trimethyl-1H-benzo[d]imidazole)-5-sulfonamido)phenyl)cyclohexane-1-carboxylic acid]
  IC50: 6.31 nM

## Cc1nc2cc(S(=O)(=O)N(C)c3ccc([C@H]4CCC[C@@H](C(=O)NC5CCC6(CCCC6)CC5)[C@@H]4C(=O)O)cc3)ccc2n1C [Example 184, (1R,2R,6S)-2-(spiro[4.5]decan-8-ylcarbamoyl)-6-(4-((N,1,2-trimethyl-1H-benzo[d]imidazole)-5-sulfonamido)phenyl)cyclohexane-1-carboxylic acid, formic acid salt]
  IC50: 631 nM

## Cc1nc2cc(S(=O)(=O)N(C)c3ccc([C@H]4CCC[C@@H](C(=O)NC56CC(C(F)(F)F)(C5)C6)[C@@H]4C(=O)O)cc3)ccc2n1C [Example 185, (1R,2R,6S)-2-((3-(trifluoromethyl)bicyclo[1.1.1]pentan-1-yl)carbamoyl)-6-(4-((N,1,2-trimethyl-1H-benzo[d]imidazole)-5-sulfonamido)phenyl)cyclohexane-1-carboxylic acid, formic acid salt]
  IC50: 63.1 nM

## Cc1nc2cc(S(=O)(=O)N(C)c3ccc([C@H]4CCC[C@@H](C(=O)NC56CC(C(F)F)(C5)C6)[C@@H]4C(=O)O)cc3)ccc2n1C [Example 186, (1R,2R,6S)-2-((3-(difluoromethyl)bicyclo[1.1.1]pentan-1-yl)carbamoyl)-6-(4-((N,1,2-trimethyl-1H-benzo[d]imidazole)-5-sulfonamido)phenyl)cyclohexane-1-carboxylic acid, formic acid salt]
  IC50: 3160 nM

## Cc1nc2cc(S(=O)(=O)N(C)c3ccc([C@H]4CCC[C@@H](C(=O)N[C@H]5CC[C@@H](C6CCC6)CC5)[C@@H]4C(=O)O)cc3)ccc2n1C [Example 189, (1R,2R,6S)-2-(((1s,4S)-4-cyclobutylcyclohexyl)carbamoyl)-6-(4-((N,1,2-trimethyl-1H-benzo[d]imidazole)-5-sulfonamido)phenyl)cyclohexane-1-carboxylic acid]
  IC50: 398 nM

## Cc1nc2cc(S(=O)(=O)N(C)c3ccc([C@H]4CCC[C@@H](C(=O)N[C@@H]5C[C@@H]6CC(F)(F)C[C@@H]6C5)[C@@H]4C(=O)O)cc3)ccc2n1C [Example 191, (1R,2R,6S)-2-(((2s,3aR,6aS)-5,5-difluorooctahydropentalen-2-yl)carbamoyl)-6-(4-((N,1,2-trimethyl-1H-benzo[d]imidazole)-5-sulfonamido)phenyl)cyclohexane-1-carboxylic acid]
  IC50: 398 nM

## Cc1nc2cc(S(=O)(=O)N(C)c3ccc([C@H]4CCC[C@@H](C(=O)N[C@@H]5CCC[C@@H](C(F)(F)F)C5)[C@@H]4C(=O)O)cc3)ccc2n1C [Example 192, (1R,2R,6S)-2-(((1R,3R)-3-(trifluoromethyl)cyclohexyl)carbamoyl)-6-(4-((N,1,2-trimethyl-1H-benzo[d]imidazole)-5-sulfonamido)phenyl)cyclohexane-1-carboxylic acid]
  IC50: 39800 nM

## Cc1nc2cc(S(=O)(=O)N(C)c3ccc([C@H]4CCC[C@@H](C(=O)N[C@]56CC[C@H](CC5)C6)[C@@H]4C(=O)O)cc3)ccc2n1C [Example 193, (1R,2R,6S)-2-(((1r,4R)-bicyclo[2.2.1]heptan-1-yl)carbamoyl)-6-(4-((N,1,2-trimethyl-1H-benzo[d]imidazole)-5-sulfonamido)phenyl)cyclohexane-1-carboxylic acid]
  IC50: 20000 nM

## CCC[C@H]1CC[C@@H](NC(=O)[C@@H]2CCC[C@H](c3ccc(N(C)S(=O)(=O)c4ccc5c(c4)nc(C)n5C)cc3)[C@H]2C(=O)O)CC1 [Example 195, (1R,2R,6S)-2-(((1r,4R)-4-propylcyclohexyl)carbamoyl)-6-(4-((N,1,2-trimethyl-1H-benzo[d]imidazole)-5-sulfonamido)phenyl)cyclohexane-1-carboxylic acid]
  IC50: 20 nM
